The supplement of paper PMC5579334
± gives the standard deviation of the averaged measurements.

Assays:
YST-1 [1] = test: % inhibition of CellTiter-Glo viability at highest tested concentration (72 h), relative to DMSO and benzethonium chloride controls; higher = more inhibition
How it was run: (§1)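 Viability of MPNST cell lines and primary human Schwann cells was read as CellTiter-Glo ATP luminescence after 72 h at 37 °C, 5% CO2, in 384-well plates seeded with 750–1000 cells per well. Each compound had been preprinted at five concentrations in 10-fold steps. Signals were scaled between vehicle and positive-control wells, duplicates averaged where present, and fitted with four-parameter logistic curves. Drug sensitivity score and relative IC50 (censored at the top concentration) come from those fits, and percent inhibition is taken at the top concentration.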

[2] = tested on: HSC2 (primary human Schwann cells); test: as above
How it was run: as §1

[3] = tested on: HSC1 (primary human Schwann cells); test: as above
How it was run: as §1

HS-Sch-2 [4] = test: as above
How it was run: as §1

STS26T [5] = test: as above
How it was run: as §1

S462 [6] = test: as above
How it was run: as §1

S1507-2 [7] = test: as above
How it was run: as §1

HS-PSS [8] = test: as above
How it was run: as §1

ST8814 [9] = test: as above
How it was run: as §1

[10] = tested on: HSC2 (primary human Schwann cells); test: drug sensitivity score (DSS, CellTox-Green cytotoxicity, 72 h) (DSS (dimensionless)); higher = more cytotoxic; extreme values may be limits of the assay
How it was run: (§2)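 MPNST cell lines and primary human Schwann cells were grown for 72 h at 37 °C in 384-well plates containing five 10-fold compound dilutions. CellTox-Green, added before seeding at a final 1:1000 dilution, gave fluorescence from DNA released by disrupted cells, and signals were scaled to vehicle and positive-control wells. Curves were fitted with a four-parameter logistic model. Drug sensitivity score and relative IC50 come from these fits, with IC50 censored at the top concentration.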

[11] = tested on: HSC1 (primary human Schwann cells); test: as above
How it was run: as §2

STS26T [12] = test: as above
How it was run: as §2

S1507-2 [13] = test: as above
How it was run: as §2

HS-PSS [14] = test: as above
How it was run: as §2

ST8814 [15] = test: as above
How it was run: as §2

YST-1 [16] = test: drug sensitivity score (DSS, CellTiter-Glo viability, 72 h) (DSS (dimensionless)); higher = more sensitive; extreme values may be limits of the assay
How it was run: as §1

[17] = tested on: HSC2 (primary human Schwann cells); test: as above
How it was run: as §1

[18] = tested on: HSC1 (primary human Schwann cells); test: as above
How it was run: as §1

HS-Sch-2 [19] = test: as above
How it was run: as §1

STS26T [20] = test: as above
How it was run: as §1

S462 [21] = test: as above
How it was run: as §1

S1507-2 [22] = test: as above
How it was run: as §1

HS-PSS [23] = test: as above
How it was run: as §1

ST8814 [24] = test: as above
How it was run: as §1

Compound | % inhibition (YST-1 [1]) [%] | % inhibition [2] [%] | % inhibition [3] [%] | % inhibition (HS-Sch-2 [4]) [%] | % inhibition (STS26T [5]) [%] | % inhibition (S462 [6]) [%] | % inhibition (S1507-2 [7]) [%] | % inhibition (HS-PSS [8]) [%] | % inhibition (ST8814 [9]) [%] | drug sensitivity score [10] | drug sensitivity score [11] | drug sensitivity score (STS26T [12]) | drug sensitivity score (S1507-2 [13]) | drug sensitivity score (HS-PSS [14]) | drug sensitivity score (ST8814 [15]) | drug sensitivity score (YST-1 [16]) | drug sensitivity score [17] | drug sensitivity score [18] | drug sensitivity score (HS-Sch-2 [19]) | drug sensitivity score (STS26T [20]) | drug sensitivity score (S462 [21]) | drug sensitivity score (S1507-2 [22]) | drug sensitivity score (HS-PSS [23]) | drug sensitivity score (ST8814 [24])
CO[C@H]1/C=C\C=C(/C)C(=O)NC2=CC(=O)C(NCCN(C)C)=C(C[C@@H](C)C[C@H](OC)[C@H](O)[C@@H](C)/C=C(\C)[C@@H]1OC(N)=O)C2=O [Alvespimycin] (max concentration tested 1000 nM) | 78.2 | 96.2 | 98.1 | 100 | 91.8 | 99.51 ± 0.13 | 95.7 ± 2.9 | 85.3 | 98.8 | 8.36 | 8.04 | 7.8 | 7.17 ± 1.2 | 3.83 | 6.78 | 15.4 | 9.75 | 10 | 15.8 | 12.5 | 15.4 ± 0.78 | 12.3 ± 0.18 | 13.8 | 14.6
Nc1nc(Cl)nc2c1ncn2[C@H]1C[C@H](O)[C@@H](CO)O1 [Cladribine] (max concentration tested 1000 nM) | 54.4 | 71.9 | 61.2 | 67.9 | 52.5 | 24.7 ± 8.6 | 9.03 ± 3 | 38.4 | 21.3 | 5.38 | 4.05 | 0.902 | 4.43 ± 6.3 | 0.65 | 0.837 | 2.87 | 6.3 | 5.81 | 3.37 | 3.75 | 0.676 ± 0.56 | 0.0035 ± 0.005 | 1.59 | 0.423
O=C(O)CC[C@H]1CC[C@@](c2cc(F)ccc2F)(S(=O)(=O)c2ccc(Cl)cc2)CC1 [MK-0752] (max concentration tested 1000 nM) | 4.12 | 15.4 | 13.4 | 10.9 | 4.15 | 6.43 ± 3.5 | -8.17 ± 8.2 | 5.19 | -3.6 | 0 | 0 | 0 | 0.0001 ± 0.00014 | 0 | 0 | 0 | 1.16 | 1.49 | 0 | 0 | 0 | 0 | 0 | 0
CCN(CC)CCOc1ccc(/C(=C(/Cl)c2ccccc2)c2ccccc2)cc1 [Clomifene] (max concentration tested 10000 nM) | 44.2 | 91.5 | 25.9 | 98.5 | 92.4 | 77.6 ± 2.6 | 95.46 ± 0.71 | 87.8 | 96.9 | 7.92 | 0 | 6.15 | 4.48 ± 1.9 | 5.71 | 6.68 | 1.77 | 6.36 | 2.36 | 5.21 | 6.27 | 5.36 ± 0.27 | 6.57 ± 0.14 | 6.39 | 6.53
COc1ccc(C2=N[C@@H](c3ccc(Cl)cc3)[C@@H](c3ccc(Cl)cc3)N2C(=O)N2CCNC(=O)C2)c(OC(C)C)c1 [Nutlin-3] (max concentration tested 10000 nM) | 94.8 | 71.8 | 62.4 | 1.38 | 12.2 | 5.05 ± 4.8 | 7.98 ± 12 | 24.9 | 59.7 | 0 | 0 | 0 | 1.97 ± 2.8 | 0 | 0.0128 | 9.36 | 7.69 | 5.97 | 0 | 0.0084 | 0 | 0.283 ± 0.4 | 1.69 | 4.66
CS(=O)(=O)CCNCc1ccc(-c2ccc3ncnc(Nc4ccc(OCc5cccc(F)c5)c(Cl)c4)c3c2)o1 [Lapatinib] (max concentration tested 1000 nM) | 22.2 | 5.46 | 7.8 | 1.85 | 10.1 | -5.81 ± 6.8 | 2.48 ± 6 | 6.86 | -2.6 | 0 | 0 | 0 | 0 | 0 | 0 | 0.63 | 0 | 0 | 0 | 0.0002 | 0 | 0 | 0 | 0
C#Cc1cccc(Nc2ncnc3cc(OC)c(OCCCCCCC(=O)NO)cc23)c1 [CUDC-101] (max concentration tested 10000 nM) | 99.1 | 102 | 102 | 101 | 100 | 102.2 ± 0.43 | 103 ± 1.6 | 95 | 102 | 11.8 | 11 | 6 | 9.97 ± 2.9 | 6.98 | 9.2 | 20.8 | 15 | 15.8 | 15.7 | 8.5 | 13.3 ± 1.8 | 11.9 ± 0.6 | 12.6 | 12.3
